Experimental data as given in the supplement of paper PMC6045584.
± gives the standard deviation of the averaged measurements.

These test systems were tested with CC(=O)O[C@H]1C(=O)[C@@]2(C)[C@H]([C@H](OC(=O)c3ccccc3)[C@]3(O)C[C@H](OC(=O)[C@H](O)[C@@H](NC(=O)c4ccccc4)c4ccccc4)C(C)=C1C3(C)C)[C@]1(OC(C)=O)CO[C@@H]1C[C@@H]2O [PACLITAXEL] (assay: surviving fraction relative to DMSO-only wells; higher = less growth inhibition). Details: 0.5 nM; exposure time: 5 days.
Method in brief: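 A line counted only if its three screens reached replicate Pearson r >0.7 and median Z' >0.3. Tumour cells in log phase were seeded at 250–500 per well in 384-well plates and, after 24 hours, kept in continuous contact with inhibitors at 0.5, 1, 5, 10, 50, 100, 500 and 1000 nM for five days. Surviving fraction was taken from CellTiter-Glo luminescence relative to the median of DMSO-only wells.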

Test System	surviving fraction
22RV1 PROSTATE	1.02 ± 0.057
93VU HEADNECK	0.972 ± 0.067
143B BONE	0.9755 ± 0.0078
A549 LUNG	0.982 ± 0.013
ASKA SYNOVIAL	0.851 ± 0.028
BT20 BREAST	0.956 ± 0.11
BT549 BREAST	0.963 ± 0.13
CADOES1 SOFT TISSUE	1 ± 0.062
CAL51 BREAST	0.824 ± 0.04
CAL72 BONE	0.876 ± 0.061
CAL120 BREAST	0.744 ± 0.044
CASKI CERVIX	0.857 ± 0.054
CHLA90 AUTONOMIC GANGLIA	0.957 ± 0.032
CME SYNOVIAL	1.07 ± 0.11
COLO320DM LARGE INTESTINE	1.12 ± 0.1
DU4475 BREAST	0.975 ± 0.17
G292 BONE	0.727 ± 0.028
H23 LUNG	0.951 ± 0.03
HCC38 BREAST	0.894 ± 0.17
HCC78 LUNG	0.846 ± 0.3

Test System	surviving fraction
HCC202 BREAST	1.15 ± 0.51
HCC1806 BREAST	0.89 ± 0.17
HMLE3 BREAST	0.89 ± 0.065
HMT3552 BREAST	0.568
HOS BONE	1.01 ± 0.011
HOSMNG BONE	1.04 ± 0.049
HS57T BREAST	0.773 ± 0.045
HSSYII SYNOVIAL	0.836 ± 0.0087
HT1080 SOFT TISSUE	0.772 ± 0.034
HU09 BONE	0.811 ± 0.11
HUO3N1 BONE	0.808 ± 0.025
JIMT1 BREAST	0.618 ± 0.028
LM7 BONE	0.951 ± 0.061
LNCAP PROSTATE	0.531 ± 0.04
MDAMB134 BREAST	0.936 ± 0.055
MDAMB157 BREAST	0.867 ± 0.075
MDAMB231 BREAST	0.706 ± 0.028
MDAMB361 BREAST	0.974 ± 0.073
MDAMB436 BREAST	0.794 ± 0.033
MDAMB468 BREAST	0.973 ± 0.024

Same assay, conditions: 1 nM; exposure time: 5 days

Test System	surviving fraction
22RV1 PROSTATE	1.04 ± 0.066
93VU HEADNECK	0.752 ± 0.059
143B BONE	0.99 ± 0.031
A549 LUNG	1.04 ± 0.031
ASKA SYNOVIAL	0.629 ± 0.052
BT20 BREAST	0.718 ± 0.026
BT549 BREAST	0.219 ± 0.04
CADOES1 SOFT TISSUE	0.994 ± 0.13
CAL51 BREAST	0.642 ± 0.076
CAL72 BONE	0.459 ± 0.078
CAL120 BREAST	0.602 ± 0.022
CASKI CERVIX	0.619 ± 0.029
CHLA90 AUTONOMIC GANGLIA	0.948 ± 0.056
CME SYNOVIAL	0.933 ± 0.11
COLO320DM LARGE INTESTINE	1.1 ± 0.091
DU4475 BREAST	0.946 ± 0.26
G292 BONE	0.472 ± 0.021
H23 LUNG	0.866 ± 0.022
HCC38 BREAST	0.492 ± 0.062
HCC78 LUNG	0.486 ± 0.046

Test System	surviving fraction
HCC202 BREAST	0.655 ± 0.15
HCC1806 BREAST	0.1833 ± 0.0015
HMLE3 BREAST	0.816 ± 0.1
HMT3552 BREAST	0.133
HOS BONE	0.95 ± 0.01
HOSMNG BONE	1.05 ± 0.11
HS57T BREAST	0.478 ± 0.058
HSSYII SYNOVIAL	0.558 ± 0.021
HT1080 SOFT TISSUE	0.533 ± 0.0091
HU09 BONE	0.45 ± 0.011
HUO3N1 BONE	0.74 ± 0.019
JIMT1 BREAST	0.293 ± 0.024
LM7 BONE	0.825 ± 0.034
LNCAP PROSTATE	0.358 ± 0.086
MDAMB134 BREAST	0.994 ± 0.033
MDAMB157 BREAST	0.674 ± 0.019
MDAMB231 BREAST	0.328 ± 0.039
MDAMB361 BREAST	0.952 ± 0.028
MDAMB436 BREAST	0.684 ± 0.015
MDAMB468 BREAST	0.771 ± 0.056

Same assay, conditions: 5 nM; exposure time: 5 days

Test System	surviving fraction
22RV1 PROSTATE	0.121 ± 0.018
93VU HEADNECK	0.326 ± 0.015
143B BONE	0.424 ± 0.016
A549 LUNG	0.369 ± 0.011
ASKA SYNOVIAL	0.203 ± 0.011
BT20 BREAST	0.0893 ± 0.0055
BT549 BREAST	0.0553 ± 0.0085
CADOES1 SOFT TISSUE	0.955 ± 0.039
CAL51 BREAST	0.0935 ± 0.013
CAL72 BONE	0.386 ± 0.047
CAL120 BREAST	0.158 ± 0.014
CASKI CERVIX	0.0537 ± 0.011
CHLA90 AUTONOMIC GANGLIA	0.507 ± 0.022
CME SYNOVIAL	0.524 ± 0.12
COLO320DM LARGE INTESTINE	1.1 ± 0.018
DU4475 BREAST	0.243 ± 0.069
G292 BONE	0.196 ± 0.0038
H23 LUNG	0.18 ± 0.0027
HCC38 BREAST	0.138 ± 0.03
HCC78 LUNG	0.16 ± 0.036

Test System	surviving fraction
HCC202 BREAST	0.377 ± 0.091
HCC1806 BREAST	0.0437 ± 0.0038
HMLE3 BREAST	0.247 ± 0.019
HMT3552 BREAST	0.09
HOS BONE	0.085 ± 0.003
HOSMNG BONE	0.921 ± 0.088
HS57T BREAST	0.0727 ± 0.0025
HSSYII SYNOVIAL	0.0827 ± 0.011
HT1080 SOFT TISSUE	0.133 ± 0.019
HU09 BONE	0.0977 ± 0.0081
HUO3N1 BONE	0.334 ± 0.011
JIMT1 BREAST	0.16 ± 0.0026
LM7 BONE	0.123 ± 0.019
LNCAP PROSTATE	0.054 ± 0.015
MDAMB134 BREAST	0.904 ± 0.18
MDAMB157 BREAST	0.144 ± 0.022
MDAMB231 BREAST	0.163 ± 0.0032
MDAMB361 BREAST	0.887 ± 0.04
MDAMB436 BREAST	0.314 ± 0.022
MDAMB468 BREAST	0.144 ± 0.018

Same assay, conditions: 10 nM; exposure time: 5 days

Test System	surviving fraction
22RV1 PROSTATE	0.0847 ± 0.0021
93VU HEADNECK	0.266 ± 0.014
143B BONE	0.265 ± 0.018
A549 LUNG	0.234 ± 0.0055
ASKA SYNOVIAL	0.194 ± 0.0031
BT20 BREAST	0.0667 ± 0.0057
BT549 BREAST	0.0387 ± 0.0025
CADOES1 SOFT TISSUE	0.846 ± 0.078
CAL51 BREAST	0.0585 ± 0.0033
CAL72 BONE	0.297 ± 0.032
CAL120 BREAST	0.0937 ± 0.005
CASKI CERVIX	0.0343 ± 0.00058
CHLA90 AUTONOMIC GANGLIA	0.231 ± 0.026
CME SYNOVIAL	0.279 ± 0.073
COLO320DM LARGE INTESTINE	1.03 ± 0.18
DU4475 BREAST	0.129 ± 0.021
G292 BONE	0.161 ± 0.0064
H23 LUNG	0.14 ± 0.0095
HCC38 BREAST	0.11 ± 0.0059
HCC78 LUNG	0.104 ± 0.021

Test System	surviving fraction
HCC202 BREAST	0.364 ± 0.12
HCC1806 BREAST	0.0357 ± 0.0032
HMLE3 BREAST	0.0813 ± 0.0093
HMT3552 BREAST	0.091
HOS BONE	0.0507 ± 0.004
HOSMNG BONE	0.924 ± 0.043
HS57T BREAST	0.0563 ± 0.0021
HSSYII SYNOVIAL	0.0622 ± 0.0043
HT1080 SOFT TISSUE	0.0517 ± 0.0035
HU09 BONE	0.0603 ± 0.0055
HUO3N1 BONE	0.23 ± 0.0085
JIMT1 BREAST	0.119 ± 0.011
LM7 BONE	0.092 ± 0.003
LNCAP PROSTATE	0.0533 ± 0.004
MDAMB134 BREAST	0.67 ± 0.13
MDAMB157 BREAST	0.105 ± 0.019
MDAMB231 BREAST	0.125 ± 0.0027
MDAMB361 BREAST	0.707 ± 0.021
MDAMB436 BREAST	0.21 ± 0.0036
MDAMB468 BREAST	0.0737 ± 0.0015

Same assay, conditions: 50 nM; exposure time: 5 days

Test System	surviving fraction
22RV1 PROSTATE	0.0603 ± 0.0061
93VU HEADNECK	0.157 ± 0.011
